Test results published in paper PMC3236741 (PLoS ONE, 2011).
“Also recorded” adds a separate entry of the source. Marks after values point to notes of the source that are not given here. Blank lines part the entries; values can stand above or below the compound they belong to. Peptide text beside a SMILES is read from it.

Columns and labels:
[1] = ^125I-Ang-(1-12) metabolism by plasma membranes from human atrial appendage, HPLC with inline γ-detector; conditions: human atrial plasma membrane 50 µg, 1 nmol/L substrate, 15 min pre-incubation, 60 min at 37°C, HPLC γ-detection, mean ± SEM, n = 9
Protocol: Membranes were prepared at 4°C in a manner similar to the approaches previously described by our laboratory [52] and by Urata et al. [26] Frozen atrial tissue (50–100 mg) was homogenized at 4°C in 1 mL PBS (pH 7.4) in a Qiagen TissueLyzer (Valencia, CA). The homogenate was centrifuged at low spin (200 g) for 5 min at 4°C to remove the connective tissues and cell debris. The supernatant was transferred into a new tube and centrifuged at 28,000 g for 20 min at 4°C to collect the plasma membrane. The pellet was resuspended in PBS and centrifuged as described above. Finally, the pellet was resuspended in PBS and stored at −80°C till its use for metabolism studies. The concentration of each cardiac membrane preparation is expressed in terms of protein concentration measured by Bradford Reagent using bovine serum albumin (BSA) as the standard; the results were normalized in terms of per mg protein.
For ^125I-Ang-(1-12) metabolism studies, plasma membranes (50 µg per reaction mixture) were preincubated for 15 min under various combinations of RAS and peptidases inhibitors (50 µM each). After preincubation of plasma membranes with the inhibitors, human ^125I-Ang-(1-12) (1 nmol/L; specific activity 3,900 cpm/fmol) was added to the reaction medium and incubated for an additional 60 min at 37°C. At the end of the incubation time, the reaction was stopped by adding equal volume of 1% phosphoric acid, mixed well, and centrifuged at 28,000 g for 20 min to remove the plasma membrane. […] On the day of HPLC analysis, the samples were filtered before separation by reverse-phase high-performance liquid chromatography. We used a linear gradient from 10% to 50% mobile phase B at a flow rate of 0.35 mL/min at ambient temperature. The solvent system consisted of 0.1% phosphoric acid (mobile phase A) and 80% acetonitriles/0.1% phosphoric acid (mobile phase B). The eluted ^125I products were monitored by an in-line flow-through gamma detector (BioScan Inc., Washington, DC). Products were identified by comparison of retention time of synthetic [^125I] standard peptides and the data were analyzed with Shimadzu LCSolution (Kyoto, Japan) acquisition software.

[2] = tested on: Ang I induced carotid artery vasoconstriction; conditions: administration of chymostatin in enalapril-treated SHR rats; ref Becari et al. [30]; cited from earlier work
From the text: A critical role for chymase in accounting for the processing of Ang-(1-12) is reinforced through the corresponding consistency of the chymase activity measured in each of the human samples. Since the atrial tissue employed in these studies was obtained from subjects undergoing cardiac surgery for the treatment of heart rhythm disorders (Table 2), we cannot exclude the possibility that the relatively high chymase activity reflects increased expression of this enzyme in this condition. Although an increase in cardiac chymase activity has been reported in both clinical and experimental forms of h ...

chymase = biological target: T1, chymase (Homo sapiens, UniProt P23946); experiment: Hydrolysis of colorimetric substrate N-suc-AAPF-pNA by human plasma membrane with or without chymostatin; assay type: biochemical; conditions: chymostatin 50 µM; 1 mM N-suc-AAPF-pNA; 50 mM Tris pH 8.0, 1.5 M NaCl, 1% DMSO; 37°C, 0–180 min; absorbance 410 nm; six human atrial tissues
T1 construct: hydrolysis of 1 mM N-suc-AAPF-pNA in the plasma membrane of six human atrial tissues; from tissue; host or cells: human left atrial appendage tissue, plasma membrane fraction
T1 sequence (P23946 22-247): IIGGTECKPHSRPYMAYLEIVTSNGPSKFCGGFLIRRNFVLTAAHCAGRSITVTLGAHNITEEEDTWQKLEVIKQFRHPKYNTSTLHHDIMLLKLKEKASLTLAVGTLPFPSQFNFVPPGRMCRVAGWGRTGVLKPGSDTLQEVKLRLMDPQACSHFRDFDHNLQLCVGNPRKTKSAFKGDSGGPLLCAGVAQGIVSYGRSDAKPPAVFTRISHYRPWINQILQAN
Protocol: Chymase activity was also monitored by evaluating the hydrolysis of 1 mM N-suc-AAPF-pNA in the plasma membrane of six human atrial tissues. Briefly, all assays were performed in a total reaction volume of 200 µL in the 96-well microtiter plates containing plasma membranes with or without the presence of chymostatin (chymase inhibitor; 50 µM) as described above in 50 mM Tris buffer (pH 8.0) containing 1.5 M NaCl and 1% dimethylsulphoxide. The increase in absorbance at 410 nm was measured at 37°C for different time points (0–180 min) for the released p-nitroaniline. In addition, Ang II formation from ^125I-Ang-(1-12) was also investigated in the absence and in the presence of TEI-F00806 (100 µM; an orally active chymase-specific inhibitor provided by Teijin Pharma, Tokyo, Japan). Briefly, plasma membranes isolated from human atrial tissue (50 µg per reaction mixture) and ^125I-Ang-(1-12) were incubated in the presence or absence of TEI-F00806 (as described above for chymostatin) for 37°C for 60 min. At the end of incubation, samples were analyzed by HPLC for Ang II formation from ^125I-Ang-(1-12).

[3] = plasma membrane (50 µg) isolated from human atrial appendage, Minus Chymostatin group; conditions: 37°C, up to 60 min
[4] = plasma membrane (50 µg) isolated from human atrial appendage, All RAS inhibitors group; conditions: 37°C, up to 60 min
[5] = plasma membrane (50 µg) isolated from human atrial appendage, No RAS inhibitors group; conditions: 37°C, up to 60 min
[6] = plasma membrane (50 µg) isolated from human atrial appendage, Minus Lisinopril group; conditions: 37°C, up to 60 min
[7] = plasma membrane of six human atrial tissues in 50 mM Tris buffer (pH 8.0) containing 1.5 M NaCl and 1% dimethylsulphoxide, with chymostatin; conditions: 37°C, up to 180 min
human leukocyte elastase = conditions: cited from earlier work
[8] = plasma membrane of six human atrial tissues in 50 mM Tris buffer (pH 8.0) containing 1.5 M NaCl and 1% dimethylsulphoxide; conditions: 37°C, up to 180 min
[9] = biological target: protein A purified polyclonal antibody directed to the COOH-terminus of human Ang-(1-12); experiment: Binding affinity and cross-reactivity of protein A purified polyclonal Ang-(1-12) antibody (IgG); conditions: protein A purified polyclonal antibody (IgG) to human Ang-(1-12); cross-reactivity
Protocol: Left atrial tissues from human cardiac patient were fixed in 4% paraformaldehyde for 24 h and then transferred into 70% ethanol. After dehydration, the tissues were embedded in paraffin and each section was cut in 5-µm thick sections. Immunohistochemistry was performed using well characterized protein A purified polyclonal antibody directed to the COOH-terminus of full length of human Ang-(1-12) sequence [Asp^1-Arg^2-Val^3-Tyr^4-Ile^5-His^6-Pro^7-Phe^8-His^9-Leu^10-Val^11-Ile^12] (AnaSpec, San Jose, CA). The binding affinity and cross-reactivity of protein A purified antibody (IgG) was checked for human Ang-(1-12) and small Ang peptides [Ang I, Ang II and Ang-(1-7)]. […] The antibody was independently used to detect immunoreactive Ang-(1-12) in human atrial tissue using the avidin-biotin horseradish peroxidase techniques as previously reported by our laboratory, [11]. Briefly, slides were deparaffinized in xylene (15 min), subsequently dipped in ethanol (100%, 95% and 75%, respectively) and washed in double distilled water. The clear slides were incubated in 3% hydrogen peroxide to block the endogenous peroxidase. […]

- Percent of ^125I-Ang-(1-12) parent control remained unmetabolized ([1]; All RAS inhibitors (plus lisinopril, SCH39370, MLN-4760, chymostatin; 50 µM each)): 98±7%
- Percent of ^125I-Ang-(1-12) parent control remained unmetabolized ([1]; Minus chymostatin (all inhibitors except chymase inhibitor; 50 µM each)): 31±13 ^a %
- Percent of ^125I-Ang-(1-12) parent control remained unmetabolized ([1]; Minus lisinopril (all inhibitors except ACE inhibitor; 50 µM each)): 98±5%
- Percent of ^125I-Ang-(1-12) parent control remained unmetabolized ([1]; NO RAS inhibitors (only amastatin, bestatin, benzyl succinate, PCMB; 50 µM each)): 22±10 ^a %
Compound: CC[C@H](C)[C@H](NC(=O)[C@@H](NC(=O)[C@H](CC(C)C)NC(=O)[C@H](Cc1c[nH]cn1)NC(=O)[C@H](Cc1ccccc1)NC(=O)[C@@H]1CCCN1C(=O)[C@H](Cc1c[nH]cn1)NC(=O)[C@@H](NC(=O)[C@H](Cc1ccc(O)cc1)NC(=O)[C@@H](NC(=O)[C@H](CCCNC(=N)N)NC(=O)[C@@H](N)CC(=O)O)C(C)C)[C@@H](C)CC)C(C)C)C(=O)O [Ang-(1-12), angiotensin-(1-12)] (H-DRVYIHPFHLVI-OH)

Compound: CC(C)C[C@H](NC(=O)[C@@H](NC(=O)N[C@@H](Cc1ccccc1)C(=O)O)[C@@H]1CCN=C(N)N1)C(=O)N[C@H](C=O)Cc1ccccc1 [chymostatin, Chymostatin]
- inhibition of Ang I induced carotid artery vasoconstriction [2]: 80%
- hydrolysis of N-suc-AAPF-pNA by human plasma membrane in the presence of inhibitor (chymase): completely blocked

- cleaved bond [3]: Phe8-His9, major
- fragment found [3]: Ang I, minor
- cleaved bond [5]: Phe8-His9, major
- fragment found [5]: Ang I, minor
- fragment found [6]: Ang II, minor
Compound: H-Asp^1-Arg^2-Val^3-Tyr^4-Ile^5-His^6-Pro^7-Phe^8-His^9-Leu^10-Val^11-Ile^12-OH
- fragment found [4]: Ang I, minor; also recorded: Ang II, minor

- fragment found [8]: p-nitroaniline
Compound: N-Succinyl-Ala-Ala-Pro-Phe-p-nitroanilide
- not cleaved [7]: hydrolysis completely blocked in the presence of chymostatin
- not cleaved (human leukocyte elastase): not hydrolyzed by human leukocyte elastase

- EC50 [9]: 0.28 ± 0.02 nM
Compound: angiotensin II (DRVYIHPF; Angiotensin-2; UniProt P01019 25-32, looked up) [Ang II, angiotensin peptide, main metabolic product of ^125I-Ang-(1-12)]

- binding affinity of the antibody (EC50) [9]: below detection
Compound: angiotensin-(1-7) [Ang-(1-7)]
